Data reported in publication PMC6670175 (Virology Journal, 2019).
Several values for one entry are separate records, joined by “and”; a condition that tells them apart may be missing. Equal values may be shown once. Read-outs that look alike come from different tables or passages of the source. Ends that are not written are not given here.

Experiments:
PRV Ea strain = assay type: cell-based, pseudorabies virus
PEDV YNKM strain = assay type: cell-based, porcine epidemic diarrhea virus; conditions: for residual infectivity: n = 3
TGEV WH-1 strain = assay type: cell-based, transmissible gastroenteritis virus; conditions: for residual infectivity: n = 3
RV TM-a strain = assay type: cell-based, rotavirus; conditions: n = 3
PRV-HNXX = assay type: cell-based, pseudorabies virus; conditions: n = 3
[1] = test system: PRV-152 (modified Bartha strain); assay type: cell-based, pseudorabies virus; conditions: n = 3
PRV-Ea [2] = assay type: cell-based, pseudorabies virus
PRV-Ea [3] = test system: PRV-Ea
PRV-Ea [4] = test system: PRV-Ea; remark: listed apart in the source
PRRSV YA isolate = assay type: cell-based, porcine reproductive and respiratory syndrome virus

| Molecule | decrease in the residual infectivity (PRV Ea strain) | residual infectivity (PRV Ea strain; n = 3) | residual infectivity (PEDV YNKM strain) | residual infectivity (TGEV WH-1 strain) | residual infectivity (RV TM-a strain) | inhibitory activity against PRV HNXX (in words) (PRV-HNXX) | inhibitory activity against PRV 152 (in words) [1] | inhibitory effect on PRV, post-infection (curative) (PRV-Ea [2]) | inhibitory effect on PRV, pre-infection (prophylactic) (PRV-Ea [2]) | inhibition of PRV particles (in words) (PRV-Ea [3]) | antiviral activity against PRV (in words) (PRV Ea strain) | 50% toxic concentration (TC50) (PK-15 cells; 48 h) | 50% effective concentration (EC50) (PRV-Ea [3]; 1 h) | further results |
| --- | --- | --- | --- | --- | --- | --- | --- | --- | --- | --- | --- | --- | --- | --- |
| FFHHIFRGIVHVGKTIHRLVTG [piscidin, piscidin 1] | more than 30 folds | around 2.3% | lower than 50% | 41.5% | 7.4% | displayed inhibitory activities | displayed inhibitory activities | No inhibitory effect | No inhibitory effect | inhibit most of the PRV particles | – | – | – | 50% toxic concentration (TC50) (PK-15 cells): 65.2 µg/mL; 50% effective concentration (EC50) (PRV-Ea [3]; n = 3): 0.23 µg/mL; brain pathology (H&E) (PRV-Ea [4]; mouse, in vivo): no specific symptom; clinical signs, peptide alone (PRV-Ea [4]; mouse, in vivo): remained asymptomatic; clinical symptoms versus PRV infected mice (PRV-Ea [4]; mouse, in vivo): symptoms appeared later and not so severe; outcome after re-challenge (PRV-Ea [4]; mouse, in vivo): all died; protection against PRV infection (in words) (PRV-Ea [4]; mouse, in vivo): obviously protected; survival and behaviour after peptide alone (PRV-Ea [4]; mouse, in vivo): All mice survived and behaved normally; survival rate of mice (PRV-Ea [4]; mouse, in vivo): 90%; survival rates at the end of the experiment (PRV-Ea [4]; mouse, in vivo): 30%; mice with severe neurological symptoms euthanized (PRV-Ea [4]; n = 10): 6 and 5 and 7 |
| CC[C@H](C)[C@H](N)C(=O)N[C@@H](CC(C)C)C(=O)N1CCC[C@H]1C(=O)N[C@@H](Cc1c[nH]c2ccccc12)C(=O)N[C@@H](CCCCN)C(=O)N[C@@H](Cc1c[nH]c2ccccc12)C(=O)N1CCC[C@H]1C(=O)N[C@@H](Cc1c[nH]c2ccccc12)C(=O)N[C@@H](Cc1c[nH]c2ccccc12)C(=O)N1CCC[C@H]1C(=O)N[C@@H](Cc1c[nH]c2ccccc12)C(=O)N[C@@H](CCCNC(=N)N)C(=O)N[C@@H](CCCNC(=N)N)C(N)=O [indolicidin] | – | 34.6% | – | – | – | – | – | – | – | – | mild antiviral activity | 110.2 µg/mL | – | – |
| GLLSVLGSVAKHVLPHVVPVIAEHL-NH2 (C-terminus assumed) [caerin, caerin 1.1] | more than 30 folds | around 2.3% | 0.2% | – | lower than 50% | displayed inhibitory activities | displayed inhibitory activities | No inhibitory effect | No inhibitory effect | inhibit most of the PRV particles | – | 67.8 µg/mL | 2.63 µg/mL | residual infectivity (PRRSV YA isolate; n = 3): 41.1% |
| FKCRRWQWRMKKLGAPSITCVRRAF [lactoferricin B] | – | – | – | 54.1% | – | – | – | – | – | – | mild antiviral activity | – | – | cytotoxic activity at maximum concentration (PK-15 cells): did not exhibit obvious cytotoxic activity |
| GLFGVLAKVAAHVVPAIAEHF-NH2 (C-terminus assumed) [maculatin, maculatin 1.1] | – | 10.1% and 10.11% | – | – | 43.4% | displayed inhibitory activities | displayed inhibitory activities | No inhibitory effect | No inhibitory effect | inhibit most of the PRV particles | – | 76.6 µg/mL | 1.09 µg/mL | residual infectivity (PRV Ea strain): 0.0017%; activity against PEDV (in words) (PEDV YNKM strain): limited activity; activity against PRRSV (in words) (PRRSV YA isolate): limited activity; activity against TGEV (in words) (TGEV WH-1 strain): limited activity |
